13 molecules from patent publication US12528778B2, “Microbiocidal derivatives” (SYNGENTA CROP PROTECTION AG, priority 2019, dated 2026) can be followed below.

Type in all cases: cell-based
Assay [1] deals with Glomerella lagenarium (Colletotrichum lagenarium). Description: Glomerella lagenarium (Colletotrichum lagenarium) / liquid culture (anthracnose). The conditions noted are these: Colletotrichum orbiculare, PDB liquid culture, 24° C., growth inhibition measured photometrically 3-4 days after application, vs untreated control. On the procedure:
Example B2: Glomerella lagenarium (Colletotrichum lagenarium)/Liquid Culture (Anthracnose) Conidia of the fungus from cryogenic storage are directly mixed into nutrient broth (PDB potato dextrose broth). After placing a (DMSO) solution of test compound into a microtiter plate (96-well format), the nutrient broth containing the fungal spores is added. The test plates are incubated at 24° C. and the inhibition of growth is measured photometrically 3-4 days after application. […] […]-49, and P-50.

In assay [2] the test system is Monographella nivalis (Microdochium nivale). As to the kind of experiment: Monographella nivalis (Microdochium nivale) / liquid culture (foot rot cereals). To be noted: PDB liquid culture, 24° C., growth inhibition determined photometrically 4-5 days after application, vs untreated control. On the procedure: Example B5: Monographella nivalis (Microdochium nivale)/Liquid Culture (Foot Rot Cereals) Conidia of the fungus from cryogenic storage are directly mixed into nutrient broth (PDB potato dextrose broth). After placing a (DMSO) solution of test compound into a microtiter plate (96-well format), the nutrient broth containing the fungal spores is added. The test plates are incubated at 24° C. and the inhibition of growth is determined photometrically 4-5 days after application. […] […]-49, and P-50.

Assay [3] deals with Mycosphaerella graminicola (Septoria tritici). As to the kind of experiment: Mycosphaerella graminicola (Septoria tritici) / liquid culture (Septoria blotch). The conditions noted are these: Zymoseptoria tritici, PDB liquid culture, 24° C., growth inhibition determined photometrically 4-5 days after application, vs untreated control. On the procedure:
Example B12: Mycosphaerella graminicola (Septoria tritici)/Liquid Culture (Septoria Blotch) Conidia of the fungus from cryogenic storage are directly mixed into nutrient broth (PDB potato dextrose broth). After placing a (DMSO) solution of test compound into a microtiter plate (96-well format), the nutrient broth containing the fungal spores is added. The test plates are incubated at 24° C. and the inhibition of growth is determined photometrically 4-5 days after application. […] […]-48, and P-49.

As for `COc1ncc(NC2CC2)nc1C(=O)NC1CCC1(C)C` (stereo not shown) [Compound P-3, 6-(cyclopropylamino)-N-(2,2-dimethylcyclobutyl)-3-methoxy-pyrazine-2-carboxamide], the inhibition of growth at 20 ppm in assay [1] and in assay [2] was ≥ 80% throughout.
Regarding `COc1ncc(Nc2cc(F)cc(F)c2)nc1C(=O)NC1CCc2cc(C(F)(F)F)ccc21` (stereo not shown) [Compound P-32, 6-(3,5-difluoroanilino)-3-methoxy-N-[5-(trifluoromethyl)indan-1-yl]pyrazine-2-carboxamide], the inhibition of growth at 20 ppm in assay [1], in assay [3] and in assay [2] was ≥ 80% in each case.
With `COc1ncc(NC2CCC2)nc1C(=O)NC1CCC1(C)C` (stereo not shown) [Compound P-2, 6-(cyclobutylamino)-N-(2,2-dimethylcyclobutyl)-3-methoxy-pyrazine-2-carboxamide], the inhibition of growth at 20 ppm in assay [1], in assay [3] and in assay [2] was ≥ 80% in each case.
With `COc1ncc(Nc2cnsc2)nc1C(=O)NCC1(C(F)(F)F)CC1` [Compound P-11], the inhibition of growth at 20 ppm in assay [1], in assay [3] and in assay [2] was ≥ 80% in each case.
As to `COc1ncc(Nc2cc(F)cc(F)c2)nc1C(=O)NC1(c2ccccn2)CC1` [Compound P-7, 6-(3,5-difluoroanilino)-3-methoxy-N-[1-(2-pyridyl)cyclopropyl] pyrazine-2-carboxamide], the inhibition of growth at 20 ppm in assay [2] was ≥ 80%.
Consider `CCON=C(CNC(=O)c1nc(Nc2cc(F)cc(F)c2)cnc1OC)c1ncc(Cl)cc1Cl` [Compound P-17, N-[2-(3,5-dichloro-2-pyridyl)-2-ethoxyimino-ethyl]-6-(3,5-difluoroanilino)-3-methoxy-pyrazine-2-carboxamide], for which the inhibition of growth at 20 ppm in assay [1] and in assay [2] was ≥ 80% throughout.
`COc1ncc(Nc2cc(F)cc(F)c2)nc1C(=O)NCCc1ccc(OC(F)(F)F)cc1` [Compound P-18, 6-(3,5-difluoroanilino)-3-methoxy-N-[2-[4-(trifluoromethoxy)phenyl]ethyl]pyrazine-2-carboxamide]: the inhibition of growth at 20 ppm in assay [1] and in assay [2] was ≥ 80% each time.
Regarding `COc1ncc(Nc2cnsc2)nc1C(=O)NCCc1ccc(OC(F)(F)F)cc1` [Compound P-10], the inhibition of growth at 20 ppm in assay [1] and in assay [2] was ≥ 80% each time.
As to `COc1ncc(Nc2cnsc2)nc1C(=O)NCc1cccc2c1OC(F)(F)O2` [Compound P-12, N-[(2,2-difluoro-1,3-benzodioxol-4-yl)methyl]-6-(isothiazol-4-ylamino)-3-methoxy-pyrazine-2-carboxamide], the inhibition of growth at 20 ppm in assay [1], in assay [3] and in assay [2] was ≥ 80% throughout.
In the case of `COc1ncc(Nc2cc(F)cc(F)c2)nc1C(=O)NCc1cccc2ccnn12` [Compound P-27], the inhibition of growth at 20 ppm in assay [1] is ≥ 80%.
On the same count and under the same terms, for `CCON=C(CNC(=O)c1nc(Nc2cc(F)nc(F)c2)cnc1OC)c1ncc(Cl)cc1Cl` [Compound P-33, N-[2-(3,5-dichloro-2-pyridyl)-2-ethoxyimino-ethyl]-6-[(2,6-difluoro-4-pyridyl)amino]-3-methoxy-pyrazine-2-carboxamide] the value was ≥ 80%.
With `COc1ncc(Nc2cnsc2)nc1C(=O)NC1CCc2cc(C(F)(F)F)ccc21` (stereo not shown) [Compound P-15, 6-(isothiazol-4-ylamino)-3-methoxy-N-[5-(trifluoromethyl)indan-1-yl]pyrazine-2-carboxamide], the inhibition of growth at 20 ppm in assay [1], in assay [3] and in assay [2] was ≥ 80% in each case.
Consider `COc1ncc(Nc2cc(F)cc(F)c2)nc1C(=O)NC1CCc2ccc(C(F)(F)F)cc21` (stereo not shown) [Compound P-31, 6-(3,5-difluoroanilino)-3-methoxy-N-[6-(trifluoromethyl)indan-1-yl]pyrazine-2-carboxamide], for which the inhibition of growth at 20 ppm in assay [1] and in assay [3] was ≥ 80% each time.
